Laboratory results taken from ChEMBL document CHEMBL3046232, “Synthesis, pharmacological evaluation and molecular docking studies of indanone derivatives” (2012).

How the values were obtained:
Type in all cases: functional
Aspergillus niger [1] = test: Antimicrobial activity against at Aspergillus niger at 100 ug/ml by cup-plate method; settings: read-out: IZ
Penicillium chrysogenum [2] = test: Antimicrobial activity against at Penicillium chrysogenum at 50 ug/ml by cup-plate method; settings: read-out: IZ
Mus musculus [3] = test: Analgesic activity in Mus musculus Swiss albino (mouse) assessed as increase in reaction time of paw licking or jump response at 50 mg/kg, po after 60 min by hot plate method
Aspergillus niger [4] = test: Antimicrobial activity against at Aspergillus niger at 50 ug/ml by cup-plate method; settings: read-out: IZ
Bacillus subtilis [5] = test: Antimicrobial activity against at Bacillus subtilis at 25 ug/ml by cup plate method; settings: read-out: IZ
Aspergillus niger [6] = test: Antimicrobial activity against at Aspergillus niger at 25 ug/ml by cup-plate method; settings: read-out: IZ
Penicillium chrysogenum [7] = test: Antimicrobial activity against at Penicillium chrysogenum at 100 ug/ml by cup-plate method; settings: read-out: IZ
Penicillium chrysogenum [8] = test: Antimicrobial activity against at Penicillium chrysogenum at 25 ug/ml by cup-plate method; settings: read-out: IZ
Escherichia coli [9] = test: Antimicrobial activity against at Escherichia coli at 100 ug/ml by cup-plate method; settings: read-out: IZ
Escherichia coli [10] = test: Antimicrobial activity against at Escherichia coli at 50 ug/ml by cup-plate method; settings: read-out: IZ
Rattus norvegicus [11] = test: Anti-inflammatory activity in Rattus norvegicus Wistar albino (rat) assessed as protection against carrageenan-induced paw edema at 50 mg/kg after 30 min
Bacillus subtilis [12] = test: Antimicrobial activity against at Bacillus subtilis at 50 ug/ml by cup plate method; settings: read-out: IZ
Rattus norvegicus [13] = test: Anti-inflammatory activity in Rattus norvegicus Wistar albino (rat) assessed as protection against carrageenan-induced paw edema at 50 mg/kg after 60 min
Escherichia coli [14] = test: Antimicrobial activity against at Escherichia coli at 25 ug/ml by cup-plate method; settings: read-out: IZ
Mus musculus [15] = test: Analgesic activity in Mus musculus Swiss albino (mouse) assessed as increase in reaction time of paw licking or jump response at 50 mg/kg, po after 90 min by hot plate method
Rattus norvegicus [16] = test: Anti-inflammatory activity in Rattus norvegicus Wistar albino (rat) assessed as protection against carrageenan-induced paw edema at 50 mg/kg after 3 hr
Rattus norvegicus [17] = test: Anti-inflammatory activity in Rattus norvegicus Wistar albino (rat) assessed as protection against carrageenan-induced paw edema at 50 mg/kg after 2 hr
Rattus norvegicus [18] = test: Anti-inflammatory activity in Rattus norvegicus Wistar albino (rat) assessed as protection against carrageenan-induced paw edema at 50 mg/kg after 90 min
Mus musculus [19] = test: Analgesic activity in Mus musculus Swiss albino (mouse) assessed as increase in reaction time of paw licking or jump response at 50 mg/kg, po after 30 min by hot plate method
Bacillus subtilis [20] = test: Antimicrobial activity against at Bacillus subtilis at 100 ug/ml by cup plate method; settings: read-out: IZ
Mus musculus [21] = test: Analgesic activity in Mus musculus Swiss albino (mouse) assessed as increase in reaction time of paw licking or jump response at 20 mg/kg, po after 90 min by hot plate method
Mus musculus [22] = test: Analgesic activity in Mus musculus Swiss albino (mouse) assessed as increase in reaction time of paw licking or jump response at 20 mg/kg, po after 60 min by hot plate method

Structure (SMILES): O=C1c2ccccc2-c2noc(-c3ccccc3)c21
- zone of inhibition at 100 µg/mL (Aspergillus niger [1]): 22.8 mm
- zone of inhibition at 50 µg/mL (Penicillium chrysogenum [2]): 12.8 mm
- Activity (Mus musculus [3]): 12.03%
- zone of inhibition at 50 µg/mL (Aspergillus niger [4]): 16.8 mm
- zone of inhibition at 25 µg/mL (Bacillus subtilis [5]): 9 mm
- zone of inhibition at 25 µg/mL (Aspergillus niger [6]): 9.75 mm
- zone of inhibition at 100 µg/mL (Penicillium chrysogenum [7]): 19.5 mm
- zone of inhibition at 25 µg/mL (Penicillium chrysogenum [8]): 6 mm
- zone of inhibition at 100 µg/mL (Escherichia coli [9]): 30.9 mm
- zone of inhibition at 50 µg/mL (Escherichia coli [10]): 16.9 mm
- Activity (Rattus norvegicus [11]): 21.44%
- zone of inhibition at 50 µg/mL (Bacillus subtilis [12]): 12 mm
- Activity (Rattus norvegicus [13]): 27.61%
- zone of inhibition at 25 µg/mL (Escherichia coli [14]): 9.79 mm
- Activity (Mus musculus [15]): 17.23%
- Activity (Rattus norvegicus [16]): 26.21%
- Activity (Rattus norvegicus [17]): 28.42%
- Activity (Rattus norvegicus [18]): 30.19%
- Activity (Mus musculus [19]): 6.23%
- zone of inhibition at 100 µg/mL (Bacillus subtilis [20]): 16.3 mm

Structure (SMILES): O=C([O-])Cc1ccccc1Nc1c(Cl)cccc1Cl.[Na+] [DICLOFENAC SODIUM]
- Activity (Mus musculus [21]): 34.62%
- Activity (Mus musculus [22]): 27.59%
